The target of one test is Cav2.3 (Homo sapiens, UniProt Q15878). The test is described as follows: Whole-cell patch clamp assay (QPatch) in HEK-293 T-Rex/Kir2.1/Cav2.3e-β4-α2δ1 cells. The following applies: QPatch 16X, room temperature, mean ± S.E, read-out: Cav2.3 (pIC50) (converted). The class given is cell-based. The procedure:
HEK-293 T-Rex/Kir2.1/Cav2.3e-β4-α2δ1 cells were seeded 96 hours before experiment and doxycycline at 0.2 μg/mL was added 24 hours before experiment. Just before the experiments cells were washed twice with D-PBS w/o Ca^2+/Mg^2+ and gently detached from the flask with Detachin. Cells were then re-suspended in the suspension solution (25 mL EX-CELL ACF CHO medium; 0.25 mL of 100× Penicillin/Streptomycin) and placed on the Automated Patch-clamp platform (QPatch 16X).
Standard whole-cell voltage clamp experiments were performed at room temperature using the single hole technology and the following intracellular and extracellular solutions (ICS and ECS, respectively) were used. ICS (mM): CsF 60, CsCl 50, NaCl 10, EGTA 20, BAPTA 5, HEPES 10, NaGTP 0.3, MgATP 5 (pH 7.2; ECS (mM): NMDG-Cl 120, BaCl2 20, HEPES 10, EGTA 7 (pH 7.4). After establishment of the seal and the passage in the whole-cell configuration, the Cav2.3 dependent current was evoked by challenging the cells with the following voltage protocol: the plasma membrane was held at −80 mV then a 50 ms-long depolarizing pulse at 0 mV, followed by a 50 ms-long hyperpolarizing pulse at −100 mV were applied and finally the plasma membrane was held back to −80 mV. This voltage protocol was applied every 10 seconds. Cav2.3 dependent current was first measured in control condition (vehicle, 0.1% DMSO), in the presence of increasing concentration of the compound under investigation and finally SNX 482 was added to fully block any R-type Cav2.3 dependent current.
For data collection, the Sophion proprietary software was used while the analysis was performed off-line using Excel and GraphPad Prism. The inward current (Area Under Curve) measured during each depolarizing pulse was normalized to cell membrane capacitance (Cm) to obtain the average inward current density in each condition (control, compound under investigation and SNX 482). Then, the inhibitory effect of the compound under investigation was evaluated as % of the remaining inward current, normalized to the internal control. […] All data were expressed as mean±S.E
(Patch clamp records ionic current or voltage across a cell membrane.)

A further test has as its system Human Cav2.3 channel. The test is described as follows: Human Cav2.3 channel calcium-influx assay. The class given is cell-based. The following applies: Fluo8 fluorescence, HEK-293 T-Rex/Kir2.1/Cav2.3e cells, without pluronic acid. The gist of the method:
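HEK-293 T-Rex/Kir2.1 cells with doxycycline (0.2 μg/mL)-inducible Cav2.3e plus Cavβ4-α2δ1, loaded with Fluo8 NW in 0 mM K+ Tyrode's. Compounds (8 points, top 30 μM, half-log, 0.3% final DMSO, n=4) preincubated 3 min at RT, then depolarized with 20 mM KCl/2 mM CaCl2 (final); fluorescence read 130 s.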

Structures are written as SMILES.

Chain of Cav2.3 (Q15878 whole entry, looked up): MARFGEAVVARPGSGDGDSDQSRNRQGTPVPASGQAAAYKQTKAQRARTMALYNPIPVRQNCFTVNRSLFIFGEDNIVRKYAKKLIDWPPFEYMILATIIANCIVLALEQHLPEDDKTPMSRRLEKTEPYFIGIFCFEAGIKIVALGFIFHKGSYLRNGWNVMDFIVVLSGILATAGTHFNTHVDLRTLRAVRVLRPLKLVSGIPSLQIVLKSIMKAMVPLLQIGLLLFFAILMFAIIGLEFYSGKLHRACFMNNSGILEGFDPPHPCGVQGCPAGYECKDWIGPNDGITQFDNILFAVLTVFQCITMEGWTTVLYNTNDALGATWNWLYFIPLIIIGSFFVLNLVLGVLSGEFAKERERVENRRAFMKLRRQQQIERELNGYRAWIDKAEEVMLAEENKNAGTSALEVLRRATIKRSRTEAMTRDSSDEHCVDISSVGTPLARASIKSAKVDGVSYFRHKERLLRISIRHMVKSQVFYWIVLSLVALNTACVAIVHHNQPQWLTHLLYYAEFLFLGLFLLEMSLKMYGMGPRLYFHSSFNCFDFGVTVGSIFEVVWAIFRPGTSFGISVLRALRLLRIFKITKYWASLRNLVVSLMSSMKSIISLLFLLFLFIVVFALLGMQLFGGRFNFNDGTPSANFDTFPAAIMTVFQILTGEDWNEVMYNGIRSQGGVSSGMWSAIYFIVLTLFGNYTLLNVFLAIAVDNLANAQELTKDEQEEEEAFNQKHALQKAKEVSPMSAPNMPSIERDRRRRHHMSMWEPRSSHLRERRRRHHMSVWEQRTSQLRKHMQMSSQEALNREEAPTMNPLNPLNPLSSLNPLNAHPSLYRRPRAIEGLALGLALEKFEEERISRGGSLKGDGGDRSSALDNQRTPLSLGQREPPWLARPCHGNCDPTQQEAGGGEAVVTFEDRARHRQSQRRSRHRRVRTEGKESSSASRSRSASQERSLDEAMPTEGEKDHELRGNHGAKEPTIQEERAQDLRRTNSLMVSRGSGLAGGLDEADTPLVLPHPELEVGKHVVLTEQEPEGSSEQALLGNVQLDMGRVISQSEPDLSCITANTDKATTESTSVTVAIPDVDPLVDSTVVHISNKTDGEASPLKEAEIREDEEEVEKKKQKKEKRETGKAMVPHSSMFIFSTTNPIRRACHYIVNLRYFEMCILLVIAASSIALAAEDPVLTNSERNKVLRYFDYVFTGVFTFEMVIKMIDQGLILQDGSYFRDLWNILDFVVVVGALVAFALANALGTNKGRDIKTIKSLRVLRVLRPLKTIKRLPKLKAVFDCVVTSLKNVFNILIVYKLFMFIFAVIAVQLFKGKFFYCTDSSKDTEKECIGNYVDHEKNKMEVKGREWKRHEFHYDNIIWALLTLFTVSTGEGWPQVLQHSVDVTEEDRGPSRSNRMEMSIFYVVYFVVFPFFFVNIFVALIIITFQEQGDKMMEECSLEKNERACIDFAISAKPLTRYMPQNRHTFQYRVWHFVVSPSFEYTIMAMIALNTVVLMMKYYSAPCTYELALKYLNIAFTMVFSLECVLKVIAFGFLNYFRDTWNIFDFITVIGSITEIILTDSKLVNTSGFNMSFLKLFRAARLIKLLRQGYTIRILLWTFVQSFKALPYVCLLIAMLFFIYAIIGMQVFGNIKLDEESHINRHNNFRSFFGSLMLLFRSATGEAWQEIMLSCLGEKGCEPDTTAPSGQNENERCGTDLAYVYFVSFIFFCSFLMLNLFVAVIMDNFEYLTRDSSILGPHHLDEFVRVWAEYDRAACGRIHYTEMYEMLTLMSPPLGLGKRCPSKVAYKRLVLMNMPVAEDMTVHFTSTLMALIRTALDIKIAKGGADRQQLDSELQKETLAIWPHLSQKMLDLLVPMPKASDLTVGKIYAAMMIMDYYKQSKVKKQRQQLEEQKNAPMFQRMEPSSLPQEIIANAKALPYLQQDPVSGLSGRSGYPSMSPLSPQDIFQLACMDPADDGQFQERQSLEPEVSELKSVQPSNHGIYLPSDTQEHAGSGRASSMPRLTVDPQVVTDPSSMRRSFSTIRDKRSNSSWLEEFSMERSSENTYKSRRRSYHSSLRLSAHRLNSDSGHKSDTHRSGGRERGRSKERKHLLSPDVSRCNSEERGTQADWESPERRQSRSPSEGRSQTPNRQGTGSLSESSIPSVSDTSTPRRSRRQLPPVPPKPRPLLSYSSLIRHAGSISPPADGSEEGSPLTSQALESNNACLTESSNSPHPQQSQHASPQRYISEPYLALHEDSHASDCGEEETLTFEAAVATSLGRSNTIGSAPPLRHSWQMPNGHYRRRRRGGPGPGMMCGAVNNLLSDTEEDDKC

Consider `CCN([C@H](c1ccc(F)cc1)C(F)(F)F)S(=O)(=O)c1cncc(F)c1` (stereo in doubt) [Example 219, N-ethyl-5-fluoro-N-(2,2,2-trifluoro-1-(4-fluorophenyl)ethyl)pyridine-3-sulfonamide], for which the IC50 on Cav2.3 is 42.7 nM. Take `CN(C(c1ccc(F)cc1)C(F)(F)F)S(=O)(=O)c1ccc(C#N)s1` (centres unmarked) [Example 2, 5-cyano-N-methyl-N-(2,2,2-trifluoro-1-(4-fluorophenyl)ethyl)thiophene-2-sulfonamide]: on Cav2.3, the IC50 was 1480 nM. Besides, the “Cav2.3 (pIC50)” value in the test on Human Cav2.3 channel amounted to 6.14. In the same order, the values of `CCN([C@@H](c1ccc(F)cc1)C(F)(F)F)S(=O)(=O)c1ccc(C#N)s1` [Example 4, (S)-5-cyano-N-ethyl-N-(2,2,2-trifluoro-1-(4-fluorophenyl)ethyl)thiophene-2-sulfonamide] are 447 nM and 5.30. For `CCN([C@H](c1ccc(F)cc1)C(F)(F)F)S(=O)(=O)c1ccc(C#N)s1` [Example 5, (R)-5-cyano-N-ethyl-N-(2,2,2-trifluoro-1-(4-fluorophenyl)ethyl)thiophene-2-sulfonamide], at Cav2.3, the IC50 is 1350 nM. The “Cav2.3 (pIC50)” value with Human Cav2.3 channel was 6.56.

For `CCN([C@@H](c1ccc(F)cc1)C(F)(F)F)S(=O)(=O)c1ccc(C)s1` [Example 9, (S)—N-ethyl-5-methyl-N-(2,2,2-trifluoro-1-(4-fluorophenyl)ethyl)thiophene-2-sulfonamide], the IC50 at Cav2.3 was 1910 nM. Also, in the test on Human Cav2.3 channel, the “Cav2.3 (pIC50)” value is listed as 5.16. For `Cc1ccc(S(=O)(=O)N(C)[C@H](c2ccc(F)cc2)C(F)(F)F)s1` [Example 13, (R)—N,5-dimethyl-N-(2,2,2-trifluoro-1-(4-fluorophenyl)ethyl)thiophene-2-sulfonamide], on Cav2.3, the IC50 is 2570 nM. Moreover, the “Cav2.3 (pIC50)” value in the test on Human Cav2.3 channel is recorded as 5.41. Taken in the same sequence, the figures for `CCN([C@H](c1ccc(F)cc1)C(F)(F)F)S(=O)(=O)C1CCOCC1` [Example 63, (R)—N-ethyl-N-(2,2,2-trifluoro-1-(4-fluorophenyl)ethyl)tetrahydro-2H-pyran-4-sulfonamide] were 302 nM and 6.92. Take `CCN([C@H](c1ccc(F)cc1)C(F)(F)F)S(=O)(=O)c1cnc(C)nc1` [Example 77, (R)—N-ethyl-2-methyl-N-(2,2,2-trifluoro-1-(4-fluorophenyl)ethyl)pyrimidine-5-sulfonamide]: the IC50 at Cav2.3 was 562 nM. For the same compound, in the test on Human Cav2.3 channel, the “Cav2.3 (pIC50)” value stood at 7.01. In the same order, the values of `CCN([C@H](c1ccc(F)cc1)C(F)(F)F)S(=O)(=O)c1cncc(N2CCOCC2)c1` [Example 96, (R)—N-ethyl-5-morpholino-N-(2,2,2-trifluoro-1-(4-fluorophenyl)ethyl)pyridine-3-sulfonamide] are 67.6 nM and 6.95. In the same order, the values of `CCN(C(c1ccc(F)cc1)C(F)(F)F)S(=O)(=O)c1cncnc1` [Example 133, (R)—N-ethyl-N-(2,2,2-trifluoro-1-(4-fluorophenyl)ethyl)pyrimidine-5-sulfonamide] are 148 nM and 7.20. In the case of `CCN([C@H](c1ccc(F)cc1)C(F)(F)F)S(=O)(=O)c1ccn2ccnc2c1` [Example 136, (R)—N-ethyl-N-(2,2,2-trifluoro-1-(4-fluorophenyl)ethyl)imidazo[1,2-a]pyridine-7-sulfonamide], the IC50 at Cav2.3 is 64.6 nM. The “Cav2.3 (pIC50)” value with Human Cav2.3 channel was determined as 7.50. In the same order, the values of `CN([C@H](c1ccc(C(F)(F)F)cc1)C(F)(F)F)S(=O)(=O)c1cncnc1` [Example 172, (R)—N-methyl-N-(2,2,2-trifluoro-1-(4-(trifluoromethyl)phenyl)ethyl)pyrimidine-5-sulfonamide] are 295 nM and 7.23.

The values above are taken from patent US20250115569A1, “SULFONAMIDE COMPOUNDS FOR THE TREATMENT OF NEUROLOGICAL CONDITIONS” (LARIO THERAPEUTICS LIMITED, priority 2021, published 2025).
